Source: DBAASP
Converted amounts (≈) assume the structure as drawn.

Columns and labels:
Assay in all cases: ≥ marks a high value that may be exact or a test limit, other limits are often not marked, values filed in µg/mL are converted to µM
[1] = test system: Candida albicans ATCC 10231
[2] = test system: Enterococcus faecalis PCM 2673
[3] = test system: Escherichia coli ATCC 25922
[4] = test system: Pseudomonas aeruginosa ATCC 9027
[5] = test system: Staphylococcus aureus ATCC 25923
Leuconostoc lactis = test system: Leuconostoc lactis
[6] = test system: Micrococcus luteus ATCC 9341
[7] = test system: Staphylococcus epidermidis ATCC 14990
Streptococcus uberis = test system: Streptococcus uberis
[8] = test system: Bacillus subtilis ATCC 6051
[9] = test system: Escherichia coli NEB5alpha
Bacillus subtilis 168 HT = test system: Bacillus subtilis 168 HT
[10] = test system: Escherichia coli K12 MG1655
[11] = test system: Staphylococcus aureus ST88
[12] = test system: Staphylococcus haemolyticus 527
[13] = test system: Acinetobacter baumannii CCARM 12035
[14] = test system: Bacillus subtilis KCTC 3068
[15] = test system: Enterococcus faecalis KCTC 2011
[16] = test system: Escherichia coli CCARM 1229
[17] = test system: Escherichia coli KCTC 1682
[18] = test system: Pseudomonas aeruginosa CCARM 2095
[19] = test system: Pseudomonas aeruginosa KCTC 1637
[20] = test system: Salmonella typhimurium CCARM 8009
[21] = test system: Salmonella typhimurium KCTC 1926
[22] = test system: Staphylococcus aureus KCTC 1621
Escherichia coli = test system: Escherichia coli
[23] = test system: Salmonella enterica subsp. enterica serovar Enteritidis
Salmonella sp. = test system: Salmonella sp.
[24] = test system: Staphylococcus aureus ATCC 29213
[25] = test system: Staphylococcus aureus ATCC 43300
Yersinia enterocolitica = test system: Yersinia enterocolitica
[26] = test system: Pseudomonas aeruginosa ATCC 27853
[27] = test system: Batrachochytrium dendrobatidis

Work on `CC[C@H](C)[C@H](NC(=O)[C@H](C)NC(=O)[C@H](Cc1ccccc1)NC(=O)[C@H](CC(C)C)NC(=O)CN)C(=O)N[C@H](C(=O)N[C@@H](CCCCN)C(=O)N[C@@H](CCCCN)C(=O)N[C@H](C(=O)N[C@@H](C)C(=O)N[C@@H](CCC(=O)O)C(=O)N[C@@H](CO)C(=O)N[C@@H](Cc1ccccc1)C(N)=O)[C@@H](C)CC)[C@@H](C)CC` [GLFAIIKKIAESF] yielded an MIC [1] of 44.5 µM (≈ 64 µg/mL), an MIC [2] of 22.3 µM (≈ 32 µg/mL) and an MIC [3] of 5.57 µM (≈ 7.99 µg/mL). The MIC [4] was 44.5 µM (≈ 64 µg/mL) and the MIC [5] was 11.1 µM (≈ 16 µg/mL).
In the case of `CC[C@H](C)[C@H](NC(=O)[C@H](CC(=O)O)NC(=O)[C@H](Cc1ccccc1)NC(=O)[C@H](CC(C)C)NC(=O)CN)C(=O)N[C@H](C(=O)N[C@@H](CCCCN)C(=O)N[C@@H](CCCCN)C(=O)N[C@@H](C)C(=O)N[C@@H](C)C(=O)N[C@@H](CCC(=O)O)C(=O)N[C@@H](CO)C(=O)N[C@@H](Cc1ccccc1)C(N)=O)[C@@H](C)CC` [GLFDIIKKAAESF], the MIC [1] is reported as 356 µM (≈ 512 µg/mL), the MIC [2] is reported as at least 89 µM and the MIC [3] is reported as 356 µM (≈ 512 µg/mL). The MIC [4] was over 356 µM and the MIC [5] was over 356 µM.
Molecule `CC[C@H](C)[C@H](NC(=O)[C@H](CC(C)C)NC(=O)[C@H](Cc1cnc[nH]1)NC(=O)CNC(=O)[C@@H](NC(=O)[C@@H](NC(=O)CNC(=O)[C@@H](NC(=O)[C@@H](NC(=O)[C@H](CCCCN)NC(=O)[C@@H]1CCCN1C(=O)[C@H](CC(C)C)NC(=O)[C@H](Cc1ccccc1)NC(=O)[C@H](CO)NC(=O)[C@H](CC(C)C)NC(=O)[C@H](CC(C)C)NC(=O)CN)C(C)C)[C@@H](C)CC)C(C)C)[C@@H](C)CC)C(=O)N[C@@H](Cc1cnc[nH]1)C(=O)N1CCC[C@H]1C(=O)N1CCC[C@H]1C(=O)N[C@@H](CO)C(=O)O` [GLLSFLPKVIGVIGHLIHPPS] has an MIC (Leuconostoc lactis) of 12 µM (≈ 26.3 µg/mL), an MIC [6] of at least 100 µM and an MIC [7] of at least 100 µM. It also gave an MIC (Streptococcus uberis) of at least 50 µM.
`CC[C@H](C)[C@H](NC(=O)[C@H](CC(N)=O)NC(=O)[C@H](CCC(N)=O)NC(=O)[C@@H](N)Cc1cnc[nH]1)C(=O)NCC(=O)N[C@@H](CO)C(=O)N[C@@H](CO)C(=O)N[C@@H](CO)C(=O)N[C@@H](CO)C(=O)N1CCC[C@H]1C(=O)N[C@@H](CC(=O)O)C(=O)N[C@H](C(=O)N[C@@H](Cc1ccc(O)cc1)C(=O)O)[C@@H](C)CC` [HQNIGSSSSPDIY] gave an MIC [8] of at least 1000 µM and an MIC [9] of at least 1000 µM.
`CC[C@H](C)[C@H](NC(=O)[C@H](Cc1cnc[nH]1)NC(=O)[C@@H](NC(=O)[C@H](CC(C)C)NC(=O)[C@@H](NC(=O)[C@@H](NC(=O)[C@H](CCCN=C(N)N)NC(=O)[C@H](CC(C)C)NC(=O)[C@H](Cc1c[nH]c2ccccc12)NC(=O)[C@H](CO)NC(=O)[C@H](CCCCN)NC(=O)[C@@H](NC(=O)[C@H](CC(C)C)NC(=O)[C@H](Cc1cnc[nH]1)NC(=O)[C@@H](NC(=O)[C@@H](NC(=O)[C@@H](NC(=O)[C@H](Cc1cnc[nH]1)NC(=O)[C@H](CC(C)C)NC(=O)[C@H](CCC(N)=O)NC(=O)[C@H](CCCCN)NC(=O)[C@H](Cc1ccccc1)NC(=O)[C@H](CO)NC(=O)[C@H](CCCCN)NC(=O)CNC(=O)[C@H](CCCCN)NC(=O)[C@@H](N)CCCCN)[C@@H](C)CC)[C@@H](C)CC)C(C)C)C(C)C)[C@@H](C)O)[C@@H](C)CC)[C@@H](C)O)C(=O)O` [KKGKSFKQLHIIVHLVKSWLRTILTHI] was tested, and the MIC (Bacillus subtilis 168 HT) was 10 µM (≈ 32.2 µg/mL), the MIC [10] was 10 µM (≈ 32.2 µg/mL) and the MIC [11] was 19.9 µM (≈ 64.2 µg/mL). The MIC [12] was 10 µM (≈ 32.2 µg/mL).
For `CC[C@H](C)[C@H](NC(=O)CNC(=O)[C@H](CC(=O)O)NC(=O)[C@H](CCCN=C(N)N)NC(=O)[C@@H](NC(=O)[C@H](CC(N)=O)NC(=O)[C@H](CCCN=C(N)N)NC(=O)CNC(=O)[C@@H](NC(=O)[C@H](CCCCN)NC(=O)[C@H](CCC(=O)O)NC(=O)[C@@H](NC(=O)[C@H](CCCCN)NC(=O)[C@H](CCCCN)NC(=O)[C@H](Cc1c[nH]c2ccccc12)NC(=O)[C@@H](NC(=O)[C@H](CCCCN)NC(=O)[C@H](Cc1ccccc1)NC(=O)[C@@H](N)CCCN=C(N)N)[C@@H](C)CC)[C@@H](C)CC)C(C)C)C(C)C)C(=O)N[C@H](C(=O)N[C@@H](CCCCN)C(=O)N[C@@H](C)C(N)=O)[C@@H](C)CC` [RFKIWKKIEKVGRNVRDGIIKA], the MIC [13] was 4 µM (≈ 10.6 µg/mL), the MIC [14] was 8 µM (≈ 21.2 µg/mL) and the MIC [15] was at least 64 µM. It also gave an MIC [16] of 2 µM (≈ 5.31 µg/mL), an MIC [17] of 1 µM (≈ 2.65 µg/mL) and an MIC [18] of 2 µM (≈ 5.31 µg/mL). It also gave an MIC [19] of 2 µM (≈ 5.31 µg/mL), an MIC [20] of 2 µM (≈ 5.31 µg/mL) and an MIC [21] of 2 µM (≈ 5.31 µg/mL). It also gave an MIC [22] of 16 µM (≈ 42.5 µg/mL).
`CC[C@H](C)[C@H](NC(=O)[C@H](CCCCN)NC(=O)[C@@H](NC(=O)[C@H](CCC(N)=O)NC(=O)[C@@H](N)CCCN=C(N)N)[C@@H](C)CC)C(=O)N[C@@H](Cc1c[nH]c2ccccc12)C(=O)N[C@@H](CCCN=C(N)N)C(=O)N[C@@H](CCCN=C(N)N)C(=O)N[C@@H](CCSC)C(=O)N[C@@H](CCCCN)C(=O)N[C@@H](Cc1c[nH]c2ccccc12)C(=O)N[C@@H](CCCCN)C(=O)N[C@@H](CCCCN)C(N)=O` [RQIKIWRRMKWKK] showed an MIC [3] of 3.37 µM (≈ 6.25 µg/mL), an MIC (Escherichia coli) of 3.01 µM (≈ 5.59 µg/mL) and an MIC [23] of 6.73 µM (≈ 12.5 µg/mL). It also gave an MIC (Salmonella sp.) of 2.69 µM (≈ 5 µg/mL), an MIC [24] of 26.9 µM (≈ 50 µg/mL) and an MIC [25] of 13.5 µM (≈ 25 µg/mL). The MIC (Yersinia enterocolitica) was 3.37 µM (≈ 6.25 µg/mL).
`CC[C@H](C)[C@H](NC(=O)[C@H](CCC(N)=O)NC(=O)[C@@H](N)CCCN=C(N)N)C(=O)N[C@@H](CCCN=C(N)N)C(=O)N[C@@H](Cc1c[nH]c2ccccc12)C(=O)N[C@@H](CCC(N)=O)C(=O)N[C@@H](CCCN=C(N)N)C(N)=O` [RQIRWQR] was tested, and the MIC [3] was over 50 µM, the MIC (Escherichia coli) was over 50 µM and the MIC [26] was over 50 µM. The MIC [23] was at least 50 µM, the MIC (Salmonella sp.) was at least 50 µM and the MIC [24] was over 50 µM. For the same molecule, the MIC [25] was over 50 µM and the MIC (Yersinia enterocolitica) was at least 50 µM.
For `CC[C@H](C)[C@H](NC(=O)[C@H](CC(C)C)NC(=O)[C@@H](N)C(C)C)C(=O)N[C@@H](CCCN=C(N)N)C(=O)NCC(=O)N[C@@H](CC(C)C)C(=O)N[C@H](C(=O)N[C@@H](Cc1cnc[nH]1)C(=O)N[C@@H](CCSC)C(=O)N[C@@H](CC(C)C)C(=O)N[C@@H](CCCN=C(N)N)C(=O)NCC(=O)NCC(=O)O)[C@@H](C)CC` [VLIRGLIHMLRGG], the MIC (Bacillus subtilis 168 HT) was 22.4 µM (≈ 32.1 µg/mL), the MIC [10] was at least 100 µM and the MIC [11] was at least 100 µM. The MIC [12] was at least 100 µM.
For `CC[C@H](C)[C@H](NC(=O)CNC(=O)[C@H](CO)NC(=O)[C@H](CC(C)C)NC(=O)[C@@H](NC(=O)[C@H](CCCN=C(N)N)NC(=O)CNC(=O)[C@@H](NC(=O)[C@H](CC(C)C)NC(=O)[C@@H]1CCCN1C(=O)[C@H](CC(C)C)NC(=O)[C@@H](N)Cc1c[nH]c2ccccc12)[C@@H](C)CC)C(C)C)C(=O)N[C@@H](CC(C)C)C(N)=O` [WLPLIGRVLSGIL], the MIC [27] was 25.1 µM (≈ 36 µg/mL).
